For one data set, the system named is THP-1 cells. Put plainly: MTT assay of THP-1 cell proliferation. The following applies: titration. Format: cell-based. The procedure: THP-1 cells were sub-cultured in 96 well culture plates at a density of 20,000 cells/well. LPS (100 ng/ml) and titrating amounts of Psorberine and/or Calcipotriol were then added to triplicate wells. The cells were cultured for 5 days, at which point the culture plates were centrifuged, the culture media removed and saved, and fresh media containing 0.863 mg/ml MTT added. After culturing for an additional 4 h, the plates were centrifuged again, the media removed from the formazan crystals and the well contents solubilized in DMSO. The absorbance of each well at 560 nm was measured. The data were normalized to the averaged results of the control wells receiving water. The culture supernatants were tested in ELISA (Bio-Source, International) for IL-8, TNF-α and IL-1β content. The effect of Psorberine on THP-1 cell proliferation was examined. […] The increase in the percentage of control seen in the MTT assay at the high concentrations of Psorberine (1:10 and 1:20 dilutions), is most probably due to the strong coloring of the compound (dark green). There is a very high OD recovered from MTT assay upon incubating […] cells with these dilutions of Psorberine.

In another data set the test system is Peripheral blood T cell. Put plainly: T cell proliferation measured by the MTT assay. Format: cell-based. The following applies: for MTT % of Control: T cells, W/LPS. The procedure:
Twenty ml aliquots of heparinized whole blood were subjected to density gradient centrifugation on Ficoll Hypaque. The buffy coat layers representing peripheral blood mononuclear cells (PBMCs) containing lymphocytes and monocytes were washed once, resuspended in RPMI 1640 containing 10% fetal calf sera and then depleted of B cells and monocytes with a T cell enrichment column (R&D Systems). The T cell preparations were centrifuged, resuspended in 5 ml of incomplete RPMI and counted using a hemocytometer. Aliquots of each cell preparation (40,000 cells in 200 μl of incomplete RPMI) were placed in the wells of 96 well culture plates and cultured overnight at 37° C. under 5% CO2. Twenty five μl of RPMI containing 1 μg/ml PMA and 8 μg/ml ionomycin. After culturing for 24 h, the plates were centrifuged at 1200 rpm for 10 min and the culture supernatants removed and saved. Two hundred μl of complete RPMI containing 0.86 mg/ml MTT was added to each well and the plates cultured for an additional 4 h. The plates were centrifuged again, the media removed and the well contents solubilized in 100% DMSO. The optical density at 560 nm of each well was determined and the averaged mean of the duplicate well calculated. The background OD560 value, determined from control wells receiving media containing no MTT, was subtracted from these values and the data normalized to that of the control wells (0 nM compound). IL-2 secretion by activated T cells was determined in the culture supernatants of these cells. The supernatants were assessed using the R&D Biosystems ELISA kit for human IL-2.
In general terms: Tetrazolium assays rely on reduction of a dye to a coloured formazan, in cell work by metabolically active cells.

Data set [1] has as its system IL-2. Nature of the data set: IL-2 release from THP-1 cells. Format: cell-based. The following applies: titration curve centered at ˜5 nM.
For data set [2], the system named is IL-2. Put plainly: IL-2 secretion by peripheral blood T cells activated with PMA plus ionomycin (ELISA). Format: cell-based, human. Particulars: 24 h, between 0.01-10 nM. The procedure: Twenty ml aliquots of heparinized whole blood were subjected to density gradient centrifugation on Ficoll Hypaque. The buffy coat layers representing peripheral blood mononuclear cells (PBMCs) containing lymphocytes and monocytes were washed once, resuspended in RPMI 1640 containing 10% fetal calf sera and then depleted of B cells and monocytes with a T cell enrichment column (R&D Systems). The T cell preparations were centrifuged, resuspended in 5 ml of incomplete RPMI and counted using a hemocytometer.
Aliquots of each cell preparation (40,000 cells in 200 μl of incomplete RPMI) were placed in the wells of 96 well culture plates and cultured overnight at 37° C. under 5% CO2. […] The optical density at 560 nm of each well was determined and the averaged mean of the duplicate well calculated. The background OD560 value, determined from control wells receiving media containing no MTT, was subtracted from these values and the data normalized to that of the control wells (0 nM compound). IL-2 secretion by activated T cells was determined in the culture supernatants of these cells. The supernatants were assessed using the R&D Biosystems ELISA kit for human IL-2.
The release of IL-2 was also determined 24 h after stimulating peripheral blood T cells with PMA plus ionomycin, in the presence or absence of Psorberine and/or Calcipotriol. […]
Background: ELISA stands for enzyme-linked immunosorbent assay.

The test system of data set [3] is Jurkat cells. Put plainly: In vitro chemotaxis assay of Jurkat cells towards SDF-1α. Format: cell-based. The following applies: for Cell Number (migrated cells per filter) / Migration Index (MI): filters 1-4. The procedure:
Jurakt cells ere grown in cultures in the presence of complete RPMI media. These cells were split one day prior to the assay. More than 99% viable cells were used in the chemotaxis assay. SDF-1α was purchased from Peprotech, Inc.
96 well plate chemotaxis chambers with a pore size of […] (ChemoTx, Neuro Probe, Inc.) were used in this assay. In the lower wells 30 μl of either RPMI plus 0.1% BSA (control), or 30 μl containing 1 μg/ml SDF-1α (positive chemotaxis) were placed. In other wells, 24 μl containing 1 μg/ml SDF-1α was added to 6 μl of media containing the appropriate concentrations of Psorberine, Calcipotriol or their combination. In the upper wells, 20 μl of media containing 20,000 cells (1×10^6/ml) either alone or in combinations with the compounds were placed. After 2 h, the upper part of the filters was washed with coton swaps to remove the non-migrating cells, and the filters were fixed with absolute methanol for 3 minutes. After this, the filters were stained with 15% Giemsa stain for 7.5 min. The filters were washed three times with distilled water, and the cells migrating to the lower wells were counted under light micriscope. For control (cells migrating in the absence of the chemoattractant), 7 filters were used, whereas 4 filters were used in the experimental conditions. Migration Index (MI) was calculated by dividing the number of cells migrating in the experimental filters by the average number of cells migrating in the control filters.

In data set [4] the test system is Jurkat cells. Put plainly: Viability of Jurkat cells (Trypan blue exclusion). Type of data set: cell-based. The procedure: The chemotaxis assay was corroborated by determining the viability of Jurkat cells. Viability of these cells either incubated in culture medium alone or with Psorberine or Calcipotriol under the same conditions as in the chemotaxis assay, was done by distinguishing dead from viable cells in the Trypan blue exclusion test. Viability of THP-1 cells was determined after incubating these cells with various concentrations of Psorberine for 4 h.

For the next data set, the system named is keratinocyte. The following applies: Muller et al. 1995; cited from earlier work.
Setting [5] is: 1 μg/ml SDF-1α + 20 nM Calcipotriol.
The mark [6] stands for this setting: 1 μg/ml SDF-1α + 80 nM Calcipotriol.
[7] abbreviates: 1 μg/ml SDF-1α + 160 nM Calcipotriol.

“And” between values parts separate entries of the source, which are not always exact repeats. Equal entries are not always repeated.

Turning to `C=C1/C(=C\C=C2/CCC[C@]3(C)[C@@H]([C@H](C)/C=C/[C@@H](O)C4CC4)CC[C@@H]23)C[C@@H](O)C[C@@H]1O` [Calcipotriol, calcipotriol], in the data set on THP-1 cells, the “effect of titrating levels on THP-1 cell proliferation” value is reported as “multi-phasic, with stimulation seen above concentrations of 1 nM”. Further, the “MTT % of Control” value is reported as 109.0164% in the data set on Peripheral blood T cell (concentration 0.050 (unit not given)); 88.52% in the data set with Peripheral blood T cell (concentration 0.100 (unit not given)); 107.377% with Peripheral blood T cell (concentration 0.500 (unit not given)); 99.18% in the data set on Peripheral blood T cell (concentration 1.000 (unit not given)); 78.69% in the data set with Peripheral blood T cell (concentration 5.000 (unit not given)); 116.3934% with Peripheral blood T cell (concentration 10.000 (unit not given)). For the same molecule, the “MTT % of Control” value is listed as 113.1148% in the data set on Peripheral blood T cell (concentration 50.000 (unit not given)) and 83.61% in the data set on Peripheral blood T cell (concentration 100.000 (unit not given)). Further, in the data set with Peripheral blood T cell (absence or presence of PMA plus ionomycin), the T cell proliferation result is on record as “Significant differences in T cell proliferation were not observed”. Also, the IL-2 release result with IL-2 [1] is given as “slight increase”. Also, in the data set with IL-2 [2], the “reduction of IL-2 concentration” value is listed as 40-50%. The “Cell Number (migrated cells per filter)” value with Jurkat cells [3] (setting [5]) is 240 and 200 and 155 and 170; in the data set on Jurkat cells [3] (setting [6]) it was 240 and 160 and 180 and 220; with Jurkat cells [3] (setting [7]), 200 and 198 and 150 and 205. The “Migration Index (MI)” value in the data set on Jurkat cells [3] (setting [5]) was 5.7 and 4.8 and 3.7 and 4.1; in the data set on Jurkat cells [3] (setting [6]), 5.7 and 3.8 and 4.3 and 5.2; in the data set on Jurkat cells [3] (setting [7]) it was 4.8 and 4.7 and 3.6 and 4.9. Besides, the “SDF-1α-induced Jurkat cell chemotaxis” value in the data set on Jurkat cells [3] (between 20-160 nM) was “did not affect”. In addition, the “# Dead Cells” value in the data set with Jurkat cells [4] (20 nM Calcipotriol) is 178; with Jurkat cells [4] (80 nM Calcipotriol), 175; in the data set with Jurkat cells [4] (160 nM Calcipotriol) it was 134. For the same molecule, the “# Viable Cells” value in the data set on Jurkat cells [4] (20 nM Calcipotriol) worked out at 18; in the data set on Jurkat cells [4] (80 nM Calcipotriol), 17; in the data set on Jurkat cells [4] (160 nM Calcipotriol) it was 11. The “% Viability” value in the data set with Jurkat cells [4] (20 nM Calcipotriol) came out at 91%; in the data set on Jurkat cells [4] (80 nM Calcipotriol) it was 91%; in the data set on Jurkat cells [4] (160 nM Calcipotriol), 92%.

For the molecule `COc1ccc2cc3[n+](cc2c1OC)CCc1cc2c(cc1-3)OCO2` [berberine], the “keratinocyte growth in vitro” value in the data set with keratinocyte is on record as “inhibits”.

The record behind these values is patent US20060286054A1, “PHARMACEUTICAL COMPOSITIONS FOR THE TREATMENT OF PSORIASIS” (Apollo Pharmaceutical, Inc., priority 2005, published 2006).
